Laboratory results from ChEMBL document CHEMBL4359816, “Discovery and Optimization of Quinolinone Derivatives as Potent, Selective, and Orally Bioavailable Mutant Isocitrate Dehydrogenase 1 (mIDH1) Inhibitors” (J Med Chem, 2019).
Converted amounts (≈) assume the structure as drawn.

How the values were obtained:
[1] = Metabolic stability in rat liver microsomes assessed as compound remaining after 30 mins; type: ADME, Microsome; conditions: read-out: Stability
[2] = Total AUC (infinity) in rat at 1 mg/kg, iv or 5 mg/kg, po; type: ADME, organism-based; conditions: in vivo
[3] = Free drug concentration in plasma of po dosed BALB/c nude mouse xenografted with human HCT116 harboring R132C mutant administered at 12 hrs intervals and measured after 4 to 24 hrs post last dose; type: ADME, organism-based; conditions: in vivo
[4] = Metabolic stability in human liver microsomes assessed as compound remaining after 30 mins; type: ADME, Microsome; conditions: read-out: Stability
[5] = molecular target: Voltage-gated inwardly rectifying potassium channel KCNH2 (Homo sapiens, UniProt Q12809); assay: Inhibition of human ERG by patch clamp method
Chain of Voltage-gated inwardly rectifying potassium channel KCNH2 (Q12809 whole entry): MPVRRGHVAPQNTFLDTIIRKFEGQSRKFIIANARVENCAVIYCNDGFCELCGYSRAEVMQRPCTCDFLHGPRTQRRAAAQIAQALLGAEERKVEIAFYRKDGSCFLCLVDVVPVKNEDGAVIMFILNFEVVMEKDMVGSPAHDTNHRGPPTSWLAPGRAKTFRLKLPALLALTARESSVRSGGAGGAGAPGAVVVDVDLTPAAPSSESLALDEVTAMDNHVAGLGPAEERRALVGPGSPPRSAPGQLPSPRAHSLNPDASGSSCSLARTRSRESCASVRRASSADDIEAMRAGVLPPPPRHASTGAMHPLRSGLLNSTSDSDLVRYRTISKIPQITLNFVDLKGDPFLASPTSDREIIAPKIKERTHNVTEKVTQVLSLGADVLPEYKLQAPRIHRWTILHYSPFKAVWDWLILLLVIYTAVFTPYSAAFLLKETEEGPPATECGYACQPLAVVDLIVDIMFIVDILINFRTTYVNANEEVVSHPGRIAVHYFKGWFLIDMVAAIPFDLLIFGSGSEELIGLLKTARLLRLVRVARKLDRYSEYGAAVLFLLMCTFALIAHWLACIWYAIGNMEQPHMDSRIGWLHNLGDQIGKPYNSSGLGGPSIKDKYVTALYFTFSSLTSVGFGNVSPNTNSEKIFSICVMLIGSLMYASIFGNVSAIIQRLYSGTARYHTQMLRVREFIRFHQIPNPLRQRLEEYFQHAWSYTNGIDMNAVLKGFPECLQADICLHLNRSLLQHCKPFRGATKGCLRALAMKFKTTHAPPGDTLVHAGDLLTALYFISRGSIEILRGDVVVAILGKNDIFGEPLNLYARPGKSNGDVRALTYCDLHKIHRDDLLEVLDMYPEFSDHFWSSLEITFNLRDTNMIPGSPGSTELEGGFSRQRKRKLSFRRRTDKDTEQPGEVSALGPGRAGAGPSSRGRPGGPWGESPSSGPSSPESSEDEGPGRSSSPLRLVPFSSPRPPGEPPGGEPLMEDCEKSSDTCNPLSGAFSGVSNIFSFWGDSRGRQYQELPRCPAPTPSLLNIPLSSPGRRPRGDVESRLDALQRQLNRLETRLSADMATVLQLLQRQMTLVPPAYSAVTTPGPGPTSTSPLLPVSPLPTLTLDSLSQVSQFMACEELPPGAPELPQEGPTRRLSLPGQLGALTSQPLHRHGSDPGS

[6] = molecular target: Isocitrate dehydrogenase [NADP] cytoplasmic (Homo sapiens, UniProt O75874, R132S); assay: Inhibition of human Myc-DDK-tagged IDH1 R132S mutant expressed in human U87MG cells assessed as reduction in 2-HG levels after 24 hrs by RapidFire high-throughput mass spectrometry assay; type: cell-based
Chain of Isocitrate dehydrogenase [NADP] cytoplasmic (Homo sapiens, UniProt O75874, R132S) (O75874 2-414 R132S limits assumed): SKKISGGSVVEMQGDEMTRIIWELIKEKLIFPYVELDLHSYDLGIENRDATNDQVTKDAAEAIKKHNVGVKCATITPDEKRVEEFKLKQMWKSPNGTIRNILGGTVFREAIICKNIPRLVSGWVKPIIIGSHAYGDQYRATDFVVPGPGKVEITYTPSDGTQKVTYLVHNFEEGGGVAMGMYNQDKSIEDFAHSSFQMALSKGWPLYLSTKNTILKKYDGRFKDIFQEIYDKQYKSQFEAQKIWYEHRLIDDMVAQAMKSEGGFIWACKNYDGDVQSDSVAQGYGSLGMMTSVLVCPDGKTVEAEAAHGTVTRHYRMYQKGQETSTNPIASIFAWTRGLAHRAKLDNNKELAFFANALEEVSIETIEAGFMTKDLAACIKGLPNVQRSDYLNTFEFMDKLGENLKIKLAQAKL

[7] = Half-life in rat at 1 mg/kg, iv or 5 mg/kg, po; type: ADME, organism-based; conditions: in vivo
[8] = Cmax in rat at 1 mg/kg, iv or 5 mg/kg, po; type: ADME, organism-based; conditions: in vivo
[9] = Protein binding in mouse plasma assessed as unbound fraction; type: ADME, cell-free
[10] = Clearance in rat at 1 mg/kg, iv or 5 mg/kg, po; type: ADME, organism-based; conditions: in vivo
[11] = Apparent permeability from apical side to basolateral side in MDCK cells; type: ADME, cell-based, Canis lupus familiaris; conditions: dog
[12] = Protein binding in mouse plasma; type: ADME, cell-free; conditions: read-out: PPB (converted)
CYP1A2 = CYP1A2 (Homo sapiens, UniProt P05177); assay: Inhibition of CYP1A2 (unknown origin) at 10 uM relative to control; type: ADME
Chain of CYP1A2 (P05177 whole entry): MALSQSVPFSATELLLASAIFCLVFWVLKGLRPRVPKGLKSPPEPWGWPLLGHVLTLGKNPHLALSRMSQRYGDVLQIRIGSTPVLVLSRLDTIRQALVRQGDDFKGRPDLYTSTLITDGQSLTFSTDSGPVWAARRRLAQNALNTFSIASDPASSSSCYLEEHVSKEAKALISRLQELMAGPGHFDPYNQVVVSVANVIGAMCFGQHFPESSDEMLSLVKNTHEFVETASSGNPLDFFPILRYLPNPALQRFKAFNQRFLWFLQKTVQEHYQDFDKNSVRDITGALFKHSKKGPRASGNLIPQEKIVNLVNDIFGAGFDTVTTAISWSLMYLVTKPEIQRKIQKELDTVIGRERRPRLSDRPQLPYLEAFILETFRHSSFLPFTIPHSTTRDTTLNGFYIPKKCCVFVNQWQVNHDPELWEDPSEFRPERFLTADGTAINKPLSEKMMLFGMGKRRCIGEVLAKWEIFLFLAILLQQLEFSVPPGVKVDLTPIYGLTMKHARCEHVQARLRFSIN

[13] = Clearance in mouse at 1 mg/kg, iv or 5 mg/kg, po; type: ADME, organism-based; conditions: in vivo
Cytochrome P450 3A4 [14] = molecular target: T1, Cytochrome P450 3A4 (Homo sapiens, UniProt P08684); assay: Time dependent inhibition of CYP3A4 (unknown origin) at <5 uM pre-incubated for 30 mins followed by midazolam substrate addition in absence of NADPH; type: ADME
T1 sequence (P08684 whole entry): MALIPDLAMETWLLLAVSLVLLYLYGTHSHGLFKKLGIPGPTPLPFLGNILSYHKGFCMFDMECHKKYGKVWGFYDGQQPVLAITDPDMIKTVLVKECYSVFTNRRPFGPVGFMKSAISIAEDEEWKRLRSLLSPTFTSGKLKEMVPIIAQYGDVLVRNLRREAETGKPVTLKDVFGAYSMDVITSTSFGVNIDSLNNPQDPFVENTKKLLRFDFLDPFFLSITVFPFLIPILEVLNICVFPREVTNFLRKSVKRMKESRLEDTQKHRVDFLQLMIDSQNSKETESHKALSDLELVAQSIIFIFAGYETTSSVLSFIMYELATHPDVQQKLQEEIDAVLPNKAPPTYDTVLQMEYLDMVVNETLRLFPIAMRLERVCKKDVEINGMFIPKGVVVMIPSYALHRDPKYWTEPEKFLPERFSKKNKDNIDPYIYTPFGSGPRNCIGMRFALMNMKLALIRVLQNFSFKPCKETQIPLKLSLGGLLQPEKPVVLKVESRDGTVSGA

MDR1 (P-gp) [15] = assay: Efflux ratio of apparent permeability from basolateral side to apical side over apical side to basolateral side in MDCK cells harboring MDR1 (unknown origin); type: ADME, cell-based, Canis lupus familiaris; conditions: dog
[16] = Apparent permeability of the compound across apical side to basolateral side in human Caco2 cells; type: ADME, cell-based; conditions: Caco-2
[17] = Octanol/aqueous buffer partition coefficient, log D of the compound at pH 7.4; type: physicochemical
Mus musculus [18] = assay: In vivo inhibition of IDH1 R132C mutant in human HCT116 cells xenografted in po dosed BALB/c nude mouse assessed as reduction in tumor 2-HG level administered at 12 hrs intervals and measured up to 24 hrs post last dose by LC-MS analysis; type: functional
[19] = Metabolic stability in dog liver microsomes assessed as compound remaining after 30 mins; type: ADME, Canis lupus familiaris, Microsome; conditions: read-out: Stability
[20] = molecular target: ATP-dependent translocase ABCB1 (Homo sapiens, UniProt P08183); assay: Substrate activity at Pgp (unknown origin) assessed as net efflux ratio by measuring ratio of efflux ratio in MDCK cells harboring MDR1 (unknown origin) to efflux ratio in MDCK cells; type: ADME, cell-based
Chain of ATP-dependent translocase ABCB1 (P08183 whole entry): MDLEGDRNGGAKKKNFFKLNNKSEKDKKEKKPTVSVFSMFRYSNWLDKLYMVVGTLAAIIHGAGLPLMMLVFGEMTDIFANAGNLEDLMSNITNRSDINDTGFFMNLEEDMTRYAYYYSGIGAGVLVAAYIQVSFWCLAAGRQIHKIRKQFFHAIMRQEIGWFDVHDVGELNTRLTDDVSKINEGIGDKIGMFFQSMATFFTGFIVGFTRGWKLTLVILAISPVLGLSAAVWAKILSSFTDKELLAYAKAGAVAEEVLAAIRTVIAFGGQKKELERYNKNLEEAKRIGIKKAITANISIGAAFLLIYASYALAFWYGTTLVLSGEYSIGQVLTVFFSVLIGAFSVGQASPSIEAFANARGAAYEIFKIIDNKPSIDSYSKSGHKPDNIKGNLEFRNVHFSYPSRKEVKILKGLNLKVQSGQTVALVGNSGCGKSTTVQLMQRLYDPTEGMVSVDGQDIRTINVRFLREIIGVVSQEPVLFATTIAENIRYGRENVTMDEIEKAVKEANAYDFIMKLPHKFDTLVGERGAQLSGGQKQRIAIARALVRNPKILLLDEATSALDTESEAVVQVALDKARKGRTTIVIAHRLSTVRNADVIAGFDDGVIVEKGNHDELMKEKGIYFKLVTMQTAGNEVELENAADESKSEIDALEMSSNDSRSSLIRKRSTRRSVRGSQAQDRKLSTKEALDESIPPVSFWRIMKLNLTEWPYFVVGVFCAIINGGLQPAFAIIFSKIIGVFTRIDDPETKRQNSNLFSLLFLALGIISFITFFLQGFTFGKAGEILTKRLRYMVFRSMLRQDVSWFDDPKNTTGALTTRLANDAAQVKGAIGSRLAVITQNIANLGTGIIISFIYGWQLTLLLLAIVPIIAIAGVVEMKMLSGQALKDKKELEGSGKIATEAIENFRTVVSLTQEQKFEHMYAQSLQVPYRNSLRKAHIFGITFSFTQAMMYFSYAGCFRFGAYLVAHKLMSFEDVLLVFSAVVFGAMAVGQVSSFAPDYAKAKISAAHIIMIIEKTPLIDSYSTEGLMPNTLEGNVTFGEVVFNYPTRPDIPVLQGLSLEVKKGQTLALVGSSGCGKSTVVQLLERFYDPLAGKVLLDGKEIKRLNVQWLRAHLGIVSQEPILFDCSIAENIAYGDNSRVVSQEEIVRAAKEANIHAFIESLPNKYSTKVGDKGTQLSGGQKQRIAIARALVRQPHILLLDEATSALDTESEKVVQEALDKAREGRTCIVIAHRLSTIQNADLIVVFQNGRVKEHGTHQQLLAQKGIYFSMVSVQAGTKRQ

CYP3A4 = CYP3A4 (Homo sapiens, UniProt P08684); assay: Inhibition of CYP3A4 (unknown origin) at 10 uM relative to control; type: ADME
Chain of CYP3A4 (P08684 whole entry): as the sequence (P08684 whole entry) above

MDR1 (P-gp) [21] = assay: Apparent permeability from basolateral side to apical side in MDCK cells harboring MDR1 (unknown origin); type: ADME, cell-based, Canis lupus familiaris; conditions: dog
Cytochrome P450 3A4 [22] = molecular target: T1, Cytochrome P450 3A4; assay: Time dependent inhibition of CYP3A4 (unknown origin) at <5 uM using testosterone as substrate; type: ADME
Cytochrome P450 3A4 [23] = molecular target: T1, Cytochrome P450 3A4; assay: Time dependent inhibition of CYP3A4 (unknown origin) at <5 uM using midazolam as substrate; type: ADME
Mus musculus [24] = assay: In vivo inhibition of IDH1 R132C mutant in human HCT116 cells xenografted in BALB/c nude mouse assessed as reduction in tumor 2-HG level at 25 mg/kg, po bid administered at 12 hrs intervals and measured at <= 12 hrs post last dose by LC-MS analysis relative to control; type: functional; conditions: HCT-116, po
[25] = Total AUC (infinity) in dog at 0.5 mg/kg, iv; type: ADME, organism-based, Canis lupus familiaris; set-up: dose 0.5 mg/kg, time AUCmax, route intravenous; conditions: in vivo
Mus musculus [26] = type: functional; conditions: BALB/c, HCT-116, po
CYP2C19 = CYP2C19 (Homo sapiens, UniProt P33261); assay: Inhibition of CYP2C19 (unknown origin) at 10 uM relative to control; type: ADME
Chain of CYP2C19 (P33261 whole entry): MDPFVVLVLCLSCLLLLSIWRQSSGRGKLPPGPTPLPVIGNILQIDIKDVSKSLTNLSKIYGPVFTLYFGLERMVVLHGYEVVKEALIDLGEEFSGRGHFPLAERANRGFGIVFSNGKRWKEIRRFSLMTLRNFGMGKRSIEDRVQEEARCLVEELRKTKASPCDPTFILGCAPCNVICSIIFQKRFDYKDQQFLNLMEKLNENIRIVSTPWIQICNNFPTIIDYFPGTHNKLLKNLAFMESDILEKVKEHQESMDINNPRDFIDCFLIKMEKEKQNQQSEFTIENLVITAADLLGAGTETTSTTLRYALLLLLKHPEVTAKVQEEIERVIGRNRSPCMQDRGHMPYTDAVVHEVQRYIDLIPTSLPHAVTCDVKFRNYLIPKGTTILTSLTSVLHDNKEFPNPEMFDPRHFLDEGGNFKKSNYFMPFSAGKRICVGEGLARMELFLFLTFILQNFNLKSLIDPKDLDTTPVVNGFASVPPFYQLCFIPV

[27] = Free drug concentration in tumor of human HCT116 harboring R132C mutant xenografted in po dosed BALB/c nude mouse administered at 12 hrs intervals and measured after 4 to 24 hrs post last dose; type: ADME, organism-based, Neoplasm; conditions: in vivo
Cytochrome P450 3A4 [28] = molecular target: T1, Cytochrome P450 3A4; assay: Time dependent inhibition of CYP3A4 (unknown origin) at <5 uM pre-incubated for 30 mins followed by midazolam substrate addition in presence of NADPH; type: ADME
[29] = Apparent permeability from basolateral side to apical side in MDCK cells; type: ADME, cell-based, Canis lupus familiaris; conditions: dog
[30] = Protein binding in human plasma; type: ADME, cell-free; conditions: read-out: PPB (converted)
[31] = Total AUC (infinity) in mouse at 1 mg/kg, iv or 5 mg/kg, po; type: ADME, organism-based; conditions: in vivo
[32] = molecular target: Isocitrate dehydrogenase [NADP] cytoplasmic (Homo sapiens, UniProt O75874); assay: Inhibition of wild-type IDH1 (unknown origin) by NADPH fluorescence based assay
Chain of Isocitrate dehydrogenase [NADP] cytoplasmic (Homo sapiens, UniProt O75874) (O75874 whole entry): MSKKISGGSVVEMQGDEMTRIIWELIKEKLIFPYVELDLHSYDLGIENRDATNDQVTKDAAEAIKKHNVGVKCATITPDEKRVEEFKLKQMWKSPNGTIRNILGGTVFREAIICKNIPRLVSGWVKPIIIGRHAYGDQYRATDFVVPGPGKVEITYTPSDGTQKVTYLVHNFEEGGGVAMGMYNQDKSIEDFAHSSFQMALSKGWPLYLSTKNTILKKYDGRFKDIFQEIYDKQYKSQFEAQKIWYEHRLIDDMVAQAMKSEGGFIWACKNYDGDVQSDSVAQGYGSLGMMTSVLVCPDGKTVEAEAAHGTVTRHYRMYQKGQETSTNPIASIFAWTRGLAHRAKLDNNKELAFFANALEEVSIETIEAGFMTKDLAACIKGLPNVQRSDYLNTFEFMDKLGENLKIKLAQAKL

[33] = Total Cmax in mouse at 1 mg/kg, iv or 5 mg/kg, po; type: ADME, organism-based; conditions: in vivo
[34] = Half-life in human hepatocytes; type: ADME, cell-based, Hepatocyte
[35] = Metabolic stability in mouse liver microsomes assessed as compound remaining after 30 mins; type: ADME, Microsome; conditions: read-out: Stability
[36] = molecular target: Isocitrate dehydrogenase [NADP] cytoplasmic (Homo sapiens, UniProt O75874, R132G); assay: Inhibition of human Myc-DDK-tagged IDH1 R132G mutant expressed in human U87MG cells assessed as reduction in 2-HG levels after 24 hrs by RapidFire high-throughput mass spectrometry assay; type: cell-based
Chain of Isocitrate dehydrogenase [NADP] cytoplasmic (Homo sapiens, UniProt O75874, R132G) (O75874 2-414 R132G limits assumed): as the sequence (O75874 2-414 R132S limits assumed) above, with S131G counted along it

[37] = fAUC (infinity) in rat at 1 mg/kg, iv or 5 mg/kg, po; type: ADME, organism-based; conditions: in vivo
[38] = Kinetic solubility of the compound; type: physicochemical; conditions: read-out: Kinetic_solubility
Cytochrome P450 3A4 [39] = molecular target: T1, Cytochrome P450 3A4; assay: Time dependent inhibition of CYP3A4 (unknown origin) at <5 uM pre-incubated for 30 mins followed by testosterone substrate addition in absence of NADPH; type: ADME
[40] = Intrinsic clearance in human hepatocytes; type: ADME, cell-based, Hepatocyte; conditions: read-out: CLH
[41] = Protein binding in dog plasma; type: ADME, cell-free, Canis lupus familiaris; conditions: read-out: PPB (converted)
[42] = molecular target: Isocitrate dehydrogenase [NADP] cytoplasmic (Homo sapiens, UniProt O75874, R132C); assay: Inhibition of IDH1 R132C mutant in human HCT116 cells assessed as reduction in 2-HG levels after 24 hrs by RapidFire high-throughput mass spectrometry assay; type: cell-based
Chain of Isocitrate dehydrogenase [NADP] cytoplasmic (Homo sapiens, UniProt O75874, R132C) (O75874 2-414 R132C limits assumed): as the sequence (O75874 2-414 R132S limits assumed) above, with S131C counted along it

MDR1 (P-gp) [43] = assay: Apparent permeability from apical side to basolateral side in MDCK cells harboring MDR1 (unknown origin); type: ADME, cell-based, Canis lupus familiaris; conditions: dog
[44] = molecular target: NET (noradrenaline transporter) (Homo sapiens, UniProt P23975); assay: Displacement of [3H]nisoxetine from recombinant human NET receptor at 10 uM after 120 mins by scintillation counting method relative to control; conditions: probe [3H]nisoxetine

COc1nc(N[C@@H](C)c2cc3cc(Cl)ccc3[nH]c2=O)ncc1C#N
remaining at 0.5 h [1]: 94 to 100%
AUC(0-inf) [2]: 22.6 µM·h
Drug uptake(free) [3]: Dose-dependent effect
remaining at 0.5 h [4]: 100 to 108%
IC50 [5]: 3.2 µM
IC50 [6]: 1.49 µM
half-life [7]: 2.2 h
Cmax [8]: 3.8 µM
fraction unbound [9]: 0.019
clearance [10]: 8.6 mL/min/kg
Papp A→B [11]: 12.6 ×10⁻⁶ cm/s
fraction unbound [12]: 0.0193
inhibition at 10 µM (CYP1A2): 35.4%
clearance [13]: 3.3 mL/min/kg
TDI (Cytochrome P450 3A4 [14]): Not Active
efflux ratio (MDR1 (P-gp) [15]): 1.19
Papp A→B [16]: 8.66 ×10⁻⁶ cm/s
logD [17]: 2.68
fIC50 (Mus musculus [18]): 46 nM
remaining at 0.5 h [19]: 94%
Ratio [20]: 1.89
inhibition at 10 µM (CYP3A4): 15.4%
Papp B→A (MDR1 (P-gp) [21]): 9.93 ×10⁻⁶ cm/s
TDI (Cytochrome P450 3A4 [22]): Not Active
TDI (Cytochrome P450 3A4 [23]): Not Active
inhibition in vivo at 25 mg/kg (Mus musculus [24]): > 90%
AUC(0-inf) [25]: 3.3 µM·h
inhibition in vivo at 12.5 mg/kg (Mus musculus [26]): > 90%
inhibition at 10 µM (CYP2C19): 22.7%
Drug uptake(free) [27]: Dose-dependent effect
TDI (Cytochrome P450 3A4 [28]): Not Active
Papp B→A [29]: 7.97 ×10⁻⁶ cm/s
fraction unbound [30]: 0.019
AUC(0-inf) [31]: 107 µM·h
IC50 [32]: 35 µM
Cmax [33]: 5.9 µM
half-life [34]: 4.32 h
remaining at 0.5 h [35]: 100 to 106%
IC50 [36]: 0.12 µM
fAUC [37]: 0.459 µM·h
solubility kinetic [38]: 10.5 µM (≈ 3.74 µg/mL)
TDI (Cytochrome P450 3A4 [39]): Not Active
CLint scaled [40]: 13.7 mL/min/kg
Ratio IC50 (Homo sapiens): 200
fraction unbound [41]: 0.0369
IC50 [42]: 0.233 µM
Papp A→B (MDR1 (P-gp) [43]): 8.35 ×10⁻⁶ cm/s
inhibition at 2 h, 10 µM [44]: > 50%
